Where only a bound is given, the exact number is not on record here.

The IC50 is the concentration that inhibits the measured activity by half.

Sequence of human-cGAS (h-cGAS) (Q8N884 whole entry): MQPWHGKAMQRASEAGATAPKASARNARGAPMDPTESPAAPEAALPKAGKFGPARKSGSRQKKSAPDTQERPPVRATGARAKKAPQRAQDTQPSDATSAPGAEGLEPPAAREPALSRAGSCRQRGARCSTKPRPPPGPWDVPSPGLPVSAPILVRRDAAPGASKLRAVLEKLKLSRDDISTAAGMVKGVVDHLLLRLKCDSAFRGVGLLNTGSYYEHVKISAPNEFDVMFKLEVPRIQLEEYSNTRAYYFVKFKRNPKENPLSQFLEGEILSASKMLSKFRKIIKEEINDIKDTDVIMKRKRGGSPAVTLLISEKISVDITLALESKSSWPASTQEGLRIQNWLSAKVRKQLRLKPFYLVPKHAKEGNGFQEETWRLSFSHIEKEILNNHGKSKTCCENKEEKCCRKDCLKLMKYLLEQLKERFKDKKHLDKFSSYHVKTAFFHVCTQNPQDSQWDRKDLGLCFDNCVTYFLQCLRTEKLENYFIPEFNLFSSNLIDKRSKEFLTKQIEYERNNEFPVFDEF

This test has as its target human-cGAS (h-cGAS) (Homo sapiens, UniProt Q8N884). Description: hcGAS Kinase-Glo Assay. Type of test: biochemical. To be noted: 40 nM h-cGAS, 100 μM ATP, 100 μM GTP, 25 nM dsDNA, 3 h incubation, read-out: hcGAS potency IC50. The gist of the method:
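IC50 values come from a luminescence-based Kinase-Glo measurement on human cGAS. Conditions follow the Lama et al. 2019 method with minor modifications.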
Take `CSc1nnc(NC(=O)c2cc(-c3c(F)cccc3F)no2)s1` [Compound 46, 3-(2,6-difluorophenyl)-N-(5-(methylthio)-1,3,4-thiadiazol-2-yl)isoxazole-5-carboxamide]: the IC50 is 100 to 500 nM.

For the compound `O=C(Nc1nnc(-c2ccccc2Cl)s1)c1onc2ccccc12` [Compound 22, N-(5-(2-chlorophenyl)-1,3,4-thiadiazol-2-yl)benzo[c]isoxazole-3-carboxamide], the IC50 was in the range of 100 to 500 nM.

As for `CSc1nnc(NC(=O)c2cnc(-c3cccs3)s2)s1` [Compound 76, N-(5-(methylthio)-1,3,4-thiadiazol-2-yl)-2-(thiophen-2-yl)thiazole-5-carboxamide], the IC50 is not below 1000 nM.

Take `O=C(Nc1nnc(-c2cccc(O)c2)s1)c1onc2ccccc12` [Compound 30, N-(5-(3-hydroxyphenyl)-1,3,4-thiadiazol-2-yl)benzo[c]isoxazole-3-carboxamide]: the IC50 was not below 1000 nM.

In the case of `O=C(Nc1nnc(-c2ccccc2Cl)s1)c1onc2c1ccc1cccnc12` [Compound 7, N-(5-(2-chlorophenyl)-1,3,4-thiadiazol-2-yl)isoxazolo[4,3-h]quinoline-3-carboxamide], the IC50 was less than 100 nM.

Take `CSc1nnc(NC(=O)c2cc(-c3ccccc3)ncn2)s1` [Compound 201, N-(5-(methylthio)-1,3,4-thiadiazol-2-yl)-6-phenylpyrimidine-4-carboxamide]: the concentration for half-maximal inhibition (IC50) is not below 1000 nM.

In the case of `CSc1nnc(NC(=O)c2onc3cc(C(=O)O)ccc23)s1` [Compound 204], the IC50 lay in the range of 100 to 500 nM.

Take `CSc1nnc(NC(=O)c2onc3ccc(Cc4ccc(O)cc4)cc23)s1` [Compound 188, 5-(4-hydroxybenzyl)-N-(5-(methylthio)-1,3,4-thiadiazol-2-yl)benzo[c]isoxazole-3-carboxamide]: the IC50 lay within 500 to 1000 nM.

For the compound `CSc1nnc(NC(=O)c2noc(N3CCCC3c3ccccc3)n2)s1` (stereo not drawn) [Compound 99, N-(5-(methylthio)-1,3,4-thiadiazol-2-yl)-5-(2-phenylpyrrolidin-1-yl)-1,2,4-oxadiazole-3-carboxamide], the half-maximal inhibitory concentration (IC50) is not below 1000 nM.

As for `O=C(Nc1nnc(C(F)(F)F)s1)c1onc2c1ccc1cccnc12` [Compound 12, N-(5-(trifluoromethyl)-1,3,4-thiadiazol-2-yl)isoxazolo[4,3-h]quinoline-3-carboxamide], the IC50 was 100 to 500 nM.

Take `O=C(Nc1nnc(-c2ccccc2Cl)s1)c1cc(-c2ncc3ccccc3n2)no1` [Compound 155, N-(5-(2-Chlorophenyl)-1,3,4-thiadiazol-2-yl)-3-(quinazolin-2-yl)isoxazole-5-carboxamide]: the IC50 was 100 to 500 nM.

In the case of `CSc1nnc(NC(=O)c2cc(-c3cccs3)no2)s1` [Compound 75, N-(5-(methylthio)-1,3,4-thiadiazol-2-yl)-3-(thiophen-2-yl)isoxazole-5-carboxamide], the IC50 lay in the range of 500 to 1000 nM.

On to `O=C(Nc1nnc(-c2ccccc2Br)s1)c1onc2ccccc12` [Compound 144, N-[5-(2-bromophenyl)-1,3,4-thiadiazol-2-yl]-2,1-benzoxazole-3-carboxamide], for which the IC50 is 100 to 500 nM.

Consider `CSc1nnc(NC(=O)c2nnc(N3CCC3c3ccccc3)o2)s1` (stereo not drawn) [Compound 74, N-(5-(methylthio)-1,3,4-thiadiazol-2-yl)-5-(2-phenylazetidin-1-yl)-1,3,4-oxadiazole-2-carboxamide], for which the IC50 is not below 1000 nM.

`CSc1nnc(NC(=O)c2cc(C3CCCCC3)no2)s1` [Compound 84, 3-cyclohexyl-N-(5-(methylthio)-1,3,4-thiadiazol-2-yl)isoxazole-5-carboxamide]: the IC50 fell in the range of 100 to 500 nM.

As for `CSc1nnc(NC(=O)c2cc(-c3cncc4ccccc34)cc(=O)o2)s1` [Compound 256, 4-(4-isoquinolyl)-N-(5-methylsulfanyl-1,3,4-thiadiazol-2-yl)-6-oxo-pyran-2-carboxamide], the IC50 was 500 to 1000 nM.

Take `COc1ccc(-c2cc(C(=O)Nc3nnc(SC)s3)on2)cc1` [Compound 210]: the IC50 was not below 1000 nM.

In the case of `CSc1nnc(NC(=O)c2onc3ccc(C(=O)c4ccccc4)cc23)s1` [Compound 167, 5-benzoyl-N-(5-(methylthio)-1,3,4-thiadiazol-2-yl)benzo[c]isoxazole-3-carboxamide], the IC50 was not below 1000 nM.

Turning to `Cc1nn(C)cc1-c1cc(C(=O)Nc2nnc(-c3ccccc3Cl)s2)on1` [Compound 54, N-(5-(2-chlorophenyl)-1,3,4-thiadiazol-2-yl)-3-(1,3-dimethyl-1H-pyrazol-4-yl)isoxazole-5-carboxamide], the IC50 lay within 100 to 500 nM.

In the case of `CSc1nnc(NC(=O)c2onc3ccc(Cn4cc(C(=O)O)c(=O)c5ccccc54)cc23)s1` [Compound 184, 1-((3-((5-(Methylthio)-1,3,4-thiadiazol-2-yl)carbamoyl)benzo[c]isoxazol-5-yl)methyl)-4-oxo-1,4-dihydroquinoline-3-carboxylic acid], the IC50 is not below 1000 nM.

For `CNc1nnc(NC(=O)c2onc3c2ccc2cccnc23)s1` [Compound 280, N-(5-(methylamino)-1,3,4-thiadiazol-2-yl)isoxazolo[4,3-h]quinoline-3-carboxamide], the IC50 is not below 1000 nM.

As to `O=C(Nc1nnc(-c2ccccc2Cl)s1)c1cc(C2CCOCC2)no1` [Compound 38, N-(5-(2-chlorophenyl)-1,3,4-thiadiazol-2-yl)-3-(tetrahydro-2H-pyran-4-yl)isoxazole-5-carboxamide], the IC50 lay in the range of 100 to 500 nM.

Take `CSc1nnc(NC(=O)c2onc3ccc(Cc4ccc5c(c4)OCO5)cc23)s1` [Compound 185, 5-(Benzo[d][1,3]dioxol-5-ylmethyl)-N-(5-(methylthio)-1,3,4-thiadiazol-2-yl)benzo[c]isoxazole-3-carboxamide]: the IC50 is not below 1000 nM.

Take `CSc1nnc(NC(=O)c2cc(-c3cccc(OC(F)(F)F)c3)no2)s1` [Compound 83, N-(5-(methylthio)-1,3,4-thiadiazol-2-yl)-3-(3-(trifluoromethoxy)phenyl)isoxazole-5-carboxamide]: the IC50 is not below 1000 nM.

Consider `CSc1nnc(NC(=O)c2noc(N3CCCCC3c3ccccc3)n2)s1` (stereo not drawn) [Compound 103, N-(5-(methylthio)-1,3,4-thiadiazol-2-yl)-5-(2-phenylpiperidin-1-yl)-1,2,4-oxadiazole-3-carboxamide], for which the IC50 lay in the range of 500 to 1000 nM.

As for `CSc1nnc(NC(=O)c2onc3c(Cl)cccc23)s1` [Compound 228, 7-chloro-N-[5-(methylsulfanyl)-1,3,4-thiadiazol-2-yl]-2,1-benzoxazole-3-carboxamide], the IC50 is 500 to 1000 nM.

`O=C(O)Cc1nnc(NC(=O)c2onc3ccccc23)s1` [Compound 132, [5-(2,1-benzoxazole-3-amido)-1,3,4-thiadiazol-2-yl]acetic acid]: the IC50 was not below 1000 nM.

With `CSc1nnc(NC(=O)c2nnn(-c3ccccn3)n2)s1` [Compound 136, N-(5-(methylthio)-1,3,4-thiadiazol-2-yl)-2-(pyridin-2-yl)-2H-tetrazole-5-carboxamide], the IC50 is 500 to 1000 nM.

Consider `CSc1nnc(NC(=O)c2cc(-c3ccc4ccccc4n3)cc(=O)o2)s1` [Compound 254, N-(5-methylsulfanyl-1,3,4-thiadiazol-2-yl)-6-oxo-4-(2-quinolyl)pyran-2-carboxamide], for which the IC50 was 100 to 500 nM.

Regarding `CSc1nnc(NC(=O)c2cc(-c3ccc(F)cc3)cc(=O)o2)s1` [Compound 239, 4-(4-fluorophenyl)-N-(5-methylsulfanyl-1,3,4-thiadiazol-2-yl)-6-oxo-pyran-2-carboxamide], the IC50 fell in the range of 100 to 500 nM.

These data come from US20250002487A1, “HETEROCYCLIC COMPOUNDS AND USES THEREOF” (Ventus Therapeutics U.S., Inc., priority 2021, published 2025).
